Positions of bridges follow the written chain, without caps; N, C: chain ends. Residues, ends and D or L forms follow the SMILES beside them.
Columns and labels:
[1] = biological target: T1, Glucagon-like peptide 1 receptor (Homo sapiens, UniProt P43220); assay: Activation of human GLP1R expressed in HEK293 cells assessed as effect on cAMP responsive element promoter driven luciferase expression; format: functional, cell-based
[2] = biological target: T1, Glucagon-like peptide 1 receptor; assay: Displacement of [125I]exendin(9-39) from human GLP1R expressed in HEK293 cells; format: cell-based

T1 sequence (P43220 whole entry): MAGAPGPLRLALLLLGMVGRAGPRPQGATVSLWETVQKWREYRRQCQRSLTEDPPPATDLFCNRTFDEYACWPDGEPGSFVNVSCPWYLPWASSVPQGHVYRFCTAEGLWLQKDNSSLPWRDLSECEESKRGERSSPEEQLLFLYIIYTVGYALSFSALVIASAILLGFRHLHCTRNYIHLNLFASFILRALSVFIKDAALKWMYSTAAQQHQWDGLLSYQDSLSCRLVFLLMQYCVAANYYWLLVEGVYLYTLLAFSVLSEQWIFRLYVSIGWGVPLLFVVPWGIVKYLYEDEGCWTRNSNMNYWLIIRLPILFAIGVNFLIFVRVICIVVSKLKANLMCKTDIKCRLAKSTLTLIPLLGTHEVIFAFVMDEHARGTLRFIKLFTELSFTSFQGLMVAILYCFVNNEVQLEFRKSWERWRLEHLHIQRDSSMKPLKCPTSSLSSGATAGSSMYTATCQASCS

Row | SMILES | EC50 [1] | IC50 [2] | EC50 ([1]; hek293) | IC50 ([2]; hek293)
1 | CC[C@H](C)[C@H](NC(=O)[C@H](Cc1ccccc1)NC(=O)[C@H](CCC(=O)O)NC(=O)[C@H](CCCCN)NC(=O)[C@H](C)NC(=O)[C@H](C)NC(=O)[C@H](CCC(N)=O)NC(=O)CNC(=O)[C@H](CCC(=O)O)NC(=O)[C@H](CC(C)C)NC(=O)[C@H](Cc1ccc(O)cc1)NC(=O)[C@@H]1CCC(=O)NCCCC[C@H](NC(=O)[C@@H](NC(=O)[C@H](Cc2ccccc2)NC(=O)[C@@H](NC(=O)CNC(=O)[C@H](CCC(=O)O)NC(=O)[C@H](C)NC(=O)[C@@H](N)Cc2cnc[nH]2)[C@@H](C)O)[C@@H](C)O)C(=O)N[C@@H](CC(=O)O)C(=O)N[C@@H](C(C)C)C(=O)N[C@@H](CO)C(=O)N1)C(=O)N[C@@H](C)C(=O)N[C@@H](Cc1c[nH]c2ccccc12)C(=O)N[C@@H](CC(C)C)C(=O)N[C@H](C(=O)N[C@@H](CCCCN)C(=O)NCC(=O)N[C@@H](CCCNC(=N)N)C(N)=O)C(C)C (H-HAEGTFTKDVSEYLEGQAAKEFIAWLVKGR-NH2; lactam 8-12) | – | – | 8.4 nM | 210 nM
2 | CC[C@H](C)[C@H](NC(=O)[C@H](CCC(=O)O)NC(=O)[C@H](CCCCN)NC(=O)[C@H](C)NC(=O)[C@H](C)NC(=O)[C@H](CCC(N)=O)NC(=O)CNC(=O)[C@H](CCC(=O)O)NC(=O)[C@H](CS)NC(=O)[C@H](Cc1ccc(O)cc1)NC(=O)[C@H](CO)NC(=O)[C@H](CO)NC(=O)[C@H](CS)NC(=O)[C@H](CC(=O)O)NC(=O)[C@H](CO)NC(=O)[C@@H](NC(=O)[C@H](Cc1ccccc1)NC(=O)[C@@H](NC(=O)CNC(=O)[C@H](CCC(=O)O)NC(=O)[C@H](C)NC(=O)[C@@H](N)Cc1cnc[nH]1)[C@@H](C)O)[C@@H](C)O)C(=O)N[C@@H](Cc1ccccc1)C(=O)N[C@@H](C)C(=O)N[C@@H](Cc1c[nH]c2ccccc12)C(=O)N[C@@H](CC(C)C)C(=O)N[C@H](C(=O)N[C@@H](CCCCN)C(=O)NCC(=O)N[C@@H](CCCNC(=N)N)C(N)=O)C(C)C (H-HAEGTFTSDCSSYCEGQAAKEIFAWLVKGR-NH2) | 1.4 nM | – | – | –
3 | CC[C@H](C)[C@H](NC(=O)[C@H](CCC(=O)O)NC(=O)[C@H](CCCCN)NC(=O)[C@H](C)NC(=O)[C@H](C)NC(=O)[C@H](CCC(N)=O)NC(=O)CNC(=O)[C@H](CCC(=O)O)NC(=O)[C@H](CC(C)C)NC(=O)[C@H](Cc1ccc(O)cc1)NC(=O)[C@H](CO)NC(=O)[C@H](CO)NC(=O)[C@@H](NC(=O)[C@H](CCC(N)=O)NC(=O)[C@H](CO)NC(=O)[C@@H](NC(=O)[C@H](Cc1ccccc1)NC(=O)[C@H](CCCCNC(C)=O)NC(=O)CNC(=O)[C@H](CCC(=O)O)NC(=O)[C@H](C)NC(=O)[C@@H](N)Cc1cnc[nH]1)[C@@H](C)O)C(C)C)C(=O)N[C@@H](Cc1ccccc1)C(=O)N[C@@H](C)C(=O)N[C@@H](Cc1c[nH]c2ccccc12)C(=O)N[C@@H](CC(C)C)C(=O)N[C@H](C(=O)N[C@@H](CCCCN)C(=O)NCC(=O)N[C@@H](CCCN=C(N)N)C(N)=O)C(C)C (H-HAEGK(Ac)FTSQVSSYLEGQAAKEIFAWLVKGR-NH2) | 24 nM | 440 nM | – | –
4 | CC[C@H](C)[C@H](NC(=O)[C@H](Cc1ccccc1)NC(=O)[C@H](CCC(=O)O)NC(=O)[C@H](CCCCN)NC(=O)[C@H](C)NC(=O)[C@H](C)NC(=O)[C@H](CCC(N)=O)NC(=O)CNC(=O)[C@H](CCC(=O)O)NC(=O)[C@H](CC(C)C)NC(=O)[C@H](Cc1ccc(O)cc1)NC(=O)[C@H](CO)NC(=O)[C@H](CO)NC(=O)[C@@H](NC(=O)[C@@H]1CCC(=O)NCCCC[C@H](NC(=O)CNC(=O)[C@H](CCC(=O)O)NC(=O)[C@H](C)NC(=O)[C@@H](N)Cc2cnc[nH]2)C(=O)N[C@@H](Cc2ccccc2)C(=O)N[C@@H]([C@@H](C)O)C(=O)N[C@@H](CO)C(=O)N1)C(C)C)C(=O)N[C@@H](C)C(=O)N[C@@H](Cc1c[nH]c2ccccc12)C(=O)N[C@@H](CC(C)C)C(=O)N[C@H](C(=O)N[C@@H](CCCCN)C(=O)NCC(=O)N[C@@H](CCCNC(=N)N)C(N)=O)C(C)C (H-HAEGKFTSEVSSYLEGQAAKEFIAWLVKGR-NH2; lactam 5-9) | – | – | 0.38 nM | 110 nM
5 | CC[C@H](C)[C@H](NC(=O)[C@H](CCC(=O)O)NC(=O)[C@H](CCCCN)NC(=O)[C@H](C)NC(=O)[C@H](C)NC(=O)[C@H](CCC(N)=O)NC(=O)CNC(=O)[C@H](CCC(=O)O)NC(=O)[C@H](CC(C)C)NC(=O)[C@H](Cc1ccc(O)cc1)NC(=O)[C@H](CO)NC(=O)[C@H](CO)NC(=O)[C@@H](NC(=O)[C@H](CC(=O)O)NC(=O)[C@H](CO)NC(=O)[C@@H](NC(=O)[C@H](Cc1ccccc1)NC(=O)[C@@H](NC(=O)CNC(=O)[C@H](CCC(=O)O)NC(=O)[C@H](C)NC(=O)[C@@H](N)Cc1cnc[nH]1)[C@@H](C)O)[C@@H](C)O)C(C)C)C(=O)N[C@@H](Cc1ccccc1)C(=O)N[C@@H](CCCCNC(C)=O)C(=O)N[C@@H](Cc1c[nH]c2ccccc12)C(=O)N[C@@H](CC(C)C)C(=O)N[C@H](C(=O)N[C@@H](CCC(N)=O)C(=O)NCC(=O)N[C@@H](CCCN=C(N)N)C(N)=O)C(C)C (H-HAEGTFTSDVSSYLEGQAAKEIFK(Ac)WLVQGR-NH2) | – | – | 0.0048 nM | –
6 | CC[C@H](C)[C@H](NC(=O)[C@H](Cc1ccccc1)NC(=O)[C@H](CCC(=O)O)NC(=O)[C@H](CCCCN)NC(=O)[C@H](C)NC(=O)[C@H](C)NC(=O)[C@H](CCC(N)=O)NC(=O)CNC(=O)[C@H](CCC(=O)O)NC(=O)[C@@H]1CSSC[C@H](NC(=O)[C@H](CC(=O)O)NC(=O)[C@H](CO)NC(=O)[C@@H](NC(=O)[C@H](Cc2ccccc2)NC(=O)[C@@H](NC(=O)CNC(=O)[C@H](CCC(=O)O)NC(=O)[C@H](C)NC(=O)[C@@H](N)Cc2cnc[nH]2)[C@@H](C)O)[C@@H](C)O)C(=O)N[C@@H](CO)C(=O)N[C@@H](CO)C(=O)N[C@@H](Cc2ccc(O)cc2)C(=O)N1)C(=O)N[C@@H](C)C(=O)N[C@@H](Cc1c[nH]c2ccccc12)C(=O)N[C@@H](CC(C)C)C(=O)N[C@H](C(=O)N[C@@H](CCCCN)C(=O)NCC(=O)N[C@@H](CCCNC(=N)N)C(N)=O)C(C)C (H-HAEGTFTSDCSSYCEGQAAKEFIAWLVKGR-NH2; disulfide 10-14) | – | – | 19 nM | –

Other lines, results leading:

Row | EC50 [1] | IC50 [2] | EC50 ([1]; hek293) | IC50 ([2]; hek293) | SMILES
7 | 0.002 nM | 15.1 nM | – | – | CC[C@H](C)[C@H](NC(=O)[C@H](Cc1ccccc1)NC(=O)[C@H](CCC(=O)O)NC(=O)[C@H](CCCCN)NC(=O)[C@H](C)NC(=O)[C@H](C)NC(=O)[C@H](CCC(N)=O)NC(=O)[C@@H]1CCC(=O)NCCCC[C@H](NC(=O)[C@H](CO)NC(=O)[C@@H](NC(=O)[C@H](CC(=O)O)NC(=O)[C@H](CO)NC(=O)[C@@H](NC(=O)[C@H](Cc2ccccc2)NC(=O)[C@@H](NC(=O)CNC(=O)[C@H](CCC(=O)O)NC(=O)[C@H](C)NC(=O)[C@@H](N)Cc2cnc[nH]2)[C@@H](C)O)[C@@H](C)O)C(C)C)C(=O)N[C@@H](Cc2ccc(O)cc2)C(=O)N[C@@H](CC(C)C)C(=O)N[C@@H](CCC(=O)O)C(=O)N1)C(=O)N[C@@H](C)C(=O)N[C@@H](Cc1c[nH]c2ccccc12)C(=O)N[C@@H](CC(C)C)C(=O)N[C@H](C(=O)N[C@@H](CCCCN)C(=O)NCC(=O)N[C@@H](CCCN=C(N)N)C(N)=O)C(C)C (H-HAEGTFTSDVSKYLEEQAAKEFIAWLVKGR-NH2; lactam 12-16)
8 | – | – | 1.1 nM | 9200 nM | CC[C@H](C)[C@H](NC(=O)[C@H](Cc1ccccc1)NC(=O)[C@H](CCC(=O)O)NC(=O)[C@H](CCCCN)NC(=O)[C@@H]1CCC(=O)NCCCC[C@H](NC(=O)[C@H](CC(C)C)NC(=O)[C@H](Cc2ccc(O)cc2)NC(=O)[C@H](CO)NC(=O)[C@H](CO)NC(=O)[C@@H](NC(=O)[C@H](CC(=O)O)NC(=O)[C@H](CO)NC(=O)[C@@H](NC(=O)[C@H](Cc2ccccc2)NC(=O)[C@@H](NC(=O)CNC(=O)[C@H](CCC(=O)O)NC(=O)[C@H](C)NC(=O)[C@@H](N)Cc2cnc[nH]2)[C@@H](C)O)[C@@H](C)O)C(C)C)C(=O)NCC(=O)N[C@@H](CCC(N)=O)C(=O)N[C@@H](C)C(=O)N1)C(=O)N[C@@H](C)C(=O)N[C@@H](Cc1c[nH]c2ccccc12)C(=O)N[C@@H](CC(C)C)C(=O)N[C@H](C(=O)N[C@@H](CCCCN)C(=O)NCC(=O)N[C@@H](CCCNC(=N)N)C(N)=O)C(C)C (H-HAEGTFTSDVSSYLKGQAEKEFIAWLVKGR-NH2; lactam 15-19)
9 | 0.0033 nM | – | – | – | CC[C@H](C)[C@H](NC(=O)[C@H](Cc1ccccc1)NC(=O)[C@H](CCC(=O)O)NC(=O)[C@H](CCCCN)NC(=O)[C@H](C)NC(=O)[C@H](C)NC(=O)[C@H](CCC(N)=O)NC(=O)CNC(=O)[C@H](CCC(=O)O)NC(=O)[C@@H]1CCC(=O)NCCCC[C@H](NC(=O)[C@H](CC(=O)O)NC(=O)[C@H](CO)NC(=O)[C@@H](NC(=O)[C@H](Cc2ccccc2)NC(=O)[C@@H](NC(=O)CNC(=O)[C@H](CCC(=O)O)NC(=O)[C@H](C)NC(=O)[C@@H](N)Cc2cnc[nH]2)[C@@H](C)O)[C@@H](C)O)C(=O)N[C@@H](CO)C(=O)N[C@@H](CO)C(=O)N[C@@H](Cc2ccc(O)cc2)C(=O)N1)C(=O)N[C@H]1CCCCNC(=O)CC[C@@H](C(=O)NCC(=O)N[C@@H](CCCNC(=N)N)C(N)=O)NC(=O)[C@H](C(C)C)NC(=O)[C@H](CC(C)C)NC(=O)[C@H](Cc2c[nH]c3ccccc23)NC1=O (H-HAEGTFTSDKSSYEEGQAAKEFIKWLVEGR-NH2; lactam 10-14, 24-28)
10 | – | – | 0.36 nM | 3000 nM | CC[C@H](C)[C@H](NC(=O)[C@H](Cc1ccccc1)NC(=O)[C@H](CCC(=O)O)NC(=O)[C@H](CCCCN)NC(=O)[C@H](C)NC(=O)[C@@H]1CCC(=O)NCCCC[C@H](NC(=O)[C@H](Cc2ccc(O)cc2)NC(=O)[C@H](CO)NC(=O)[C@H](CO)NC(=O)[C@@H](NC(=O)[C@H](CC(=O)O)NC(=O)[C@H](CO)NC(=O)[C@@H](NC(=O)[C@H](Cc2ccccc2)NC(=O)[C@@H](NC(=O)CNC(=O)[C@H](CCC(=O)O)NC(=O)[C@H](C)NC(=O)[C@@H](N)Cc2cnc[nH]2)[C@@H](C)O)[C@@H](C)O)C(C)C)C(=O)N[C@@H](CCC(=O)O)C(=O)NCC(=O)N[C@@H](CCC(N)=O)C(=O)N1)C(=O)N[C@@H](C)C(=O)N[C@@H](Cc1c[nH]c2ccccc12)C(=O)N[C@@H](CC(C)C)C(=O)N[C@H](C(=O)N[C@@H](CCCCN)C(=O)NCC(=O)N[C@@H](CCCNC(=N)N)C(N)=O)C(C)C (H-HAEGTFTSDVSSYKEGQEAKEFIAWLVKGR-NH2; lactam 14-18)

— ChEMBL document CHEMBL1151687, “Search for alpha-helical propensity in the receptor-bound conformation of glucagon-like peptide-1” (Bioorg Med Chem, 2008)
